# What was measured:
# Type in all cases: in vivo
# [1] = system: foxtail, giant (giant foxtail, Setaria faberi); assay: Test C postemergence, visual plant response rating
# Outline: (§1)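 Seeds sown in a loam–sand blend got a directed preemergence soil spray; postemergence plants (2–10 cm, one- to two-leaf stage) were sprayed with compound in a non-phytotoxic solvent plus surfactant. Injury was scored visually against untreated controls after about 10 d in a greenhouse on a 0–100 scale (100 = complete control).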
# [2] = system: galium (catchweed bedstraw, Galium aparine); assay: Test C postemergence, visual plant response rating
# Outline: as §1
# [3] = system: blackgrass (Alopecurus myosuroides); assay: Test C postemergence, visual plant response rating
# Outline: as §1
# [4] = system: pigweed (Amaranthus retroflexus); assay: Test C postemergence, visual plant response rating
# Outline: as §1
# [5] = system: ragweed (common ragweed, Ambrosia artemisiifolia); assay: Test C postemergence, visual plant response rating
# Outline: as §1
# [6] = system: Italian ryegrass (Lolium mutiflorum); assay: Test C postemergence, visual plant response rating
# Outline: as §1
# [7] = system: kochia (Bassia scoparia); assay: Test C postemergence, visual plant response rating
# Outline: as §1
# [8] = system: barnyardgrass (Echinochloa crus-galli); assay: Test C postemergence, visual plant response rating
# Outline: as §1
# [9] = system: corn (Zea mays); assay: Test C postemergence, visual plant response rating
# Outline: as §1
# [10] = system: wheat (Triticum aestivum); assay: Test C postemergence, visual plant response rating
# Outline: as §1
# [11] = system: sedge umbrella (small-flower umbrella sedge, Cyperus difformis); assay: Test D flooded paddy test, visual plant response rating; settings: 250 g ai/ha, scale 0 to 100 (0 no effect, 100 complete control), 13 to 15 d
# Outline: (§2)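 Plants grown to the 2-leaf stage; pots flooded to 3 cm above soil and compound applied directly into paddy water, depth held throughout. Kept in greenhouse 13 to 15 d, then rated visually against untreated controls on a 0–100 scale (0 no effect, 100 complete control).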
# [12] = system: rice (Oryza sativa); assay: as above; settings: 250 g ai/ha, scale 0 to 100 (0 no effect, 100 complete control), 13 to 15 d
# Outline: as §2
# [13] = system: barnyardgrass (Echinochloa crus-galli); assay: as above; settings: 250 g ai/ha, scale 0 to 100 (0 no effect, 100 complete control), 13 to 15 d
# Outline: as §2
# [14] = system: duck salad (Heteranthera limosa); assay: as above; settings: 250 g ai/ha, scale 0 to 100 (0 no effect, 100 complete control), 13 to 15 d
# Outline: as §2
# [15] = system: foxtail, giant (giant foxtail, Setaria faberi); assay: Test C preemergence, visual plant response rating
# Outline: as §1
# [16] = system: pigweed (Amaranthus retroflexus); assay: Test C preemergence, visual plant response rating
# Outline: as §1
# [17] = system: ragweed (common ragweed, Ambrosia artemisiifolia); assay: Test C preemergence, visual plant response rating
# Outline: as §1
# [18] = system: Italian ryegrass (Lolium mutiflorum); assay: Test C preemergence, visual plant response rating
# Outline: as §1
# [19] = system: kochia (Bassia scoparia); assay: Test C preemergence, visual plant response rating
# Outline: as §1
# [20] = system: barnyardgrass (Echinochloa crus-galli); assay: Test C preemergence, visual plant response rating
# Outline: as §1
# [21] = Test C, postemergence, 125 g ai/ha
# [22] = Test C, 31 g ai/ha, 0 is no effect, 100 is complete control
# [23] = Test C, 125 g ai/ha, 0 is no effect, 100 is complete control
# [24] = Test C, postemergence, 31 g ai/ha
Structure (SMILES),"Foxtail, Giant plant response rating (0 to 100 scale) [1, 21]","Galium plant response rating (0 to 100 scale) [2, 21]","Blackgrass plant response rating (0 to 100 scale) [3, 21]","Pigweed plant response rating (0 to 100 scale) ([4]; Postemergence, 31 g ai/ha)","Pigweed plant response rating (0 to 100 scale) [4, 21]","Ragweed plant response rating (0 to 100 scale) ([5]; Postemergence, 31 g ai/ha)","Ragweed plant response rating (0 to 100 scale) [5, 21]","Ryegrass, Italian plant response rating (0 to 100 scale) ([6]; Postemergence, 31 g ai/ha)","Ryegrass, Italian plant response rating (0 to 100 scale) [6, 21]","Kochia plant response rating (0 to 100 scale) [7, 21]","Barnyardgrass plant response rating (0 to 100 scale) [8, 21]","Corn plant response rating (0 to 100 scale) [9, 21]","Wheat plant response rating (0 to 100 scale) ([10]; Postemergence, 31 g ai/ha)","Wheat plant response rating (0 to 100 scale) [10, 21]","Plant response rating, Sedge, Umbrella (Flood) [11]","Plant response rating, Rice (Flood) [12]","Plant response rating, Barnyardgrass (Flood) [13]","Plant response rating, Ducksalad (Flood) [14]","Foxtail, Giant plant response rating (0 to 100 scale) [15, 22]","Pigweed plant response rating (0 to 100 scale) [16, 22]",other results
CON=C(c1cc(Cl)cc(Cl)c1Cl)c1c(O)c(C)nn(C)c1=O [Compound 214],80,90,80,80,90,80,90,80,100,80,80,40,40,70,70,45,70,70,80,80,"Foxtail, Giant plant response rating (0 to 100 scale) ([1]; Postemergence, 31 g ai/ha): 80; Galium plant response rating (0 to 100 scale) ([2]; Postemergence, 31 g ai/ha): 90; Blackgrass plant response rating (0 to 100 scale) ([3]; Postemergence, 31 g ai/ha): 30; Kochia plant response rating (0 to 100 scale) ([7]; Postemergence, 31 g ai/ha): 70; Barnyardgrass plant response rating (0 to 100 scale) ([8]; Postemergence, 31 g ai/ha): 70; Corn plant response rating (0 to 100 scale) ([9]; Postemergence, 31 g ai/ha): 30; Foxtail, Giant plant response rating (0 to 100 scale) [15, 23]: 100; Pigweed plant response rating (0 to 100 scale) [16, 23]: 100; Ragweed plant response rating (0 to 100 scale) [17, 22]: 20; Ragweed plant response rating (0 to 100 scale) [17, 23]: 100; Ryegrass, Italian plant response rating (0 to 100 scale) [18, 22]: 90; Ryegrass, Italian plant response rating (0 to 100 scale) [18, 23]: 100; Kochia plant response rating (0 to 100 scale) [19, 22]: 20; Kochia plant response rating (0 to 100 scale) [19, 23]: 70; Barnyardgrass plant response rating (0 to 100 scale) [20, 22]: 70; Barnyardgrass plant response rating (0 to 100 scale) [20, 23]: 90"
CO/N=C(/c1c(O)cnn(C)c1=O)c1ccc(F)c2ccccc12 [Compound 304],20,80,0,50,80,0,10,20,60,50,0,20,0,0,0,0,0,0,0,10,"Foxtail, Giant plant response rating (0 to 100 scale) ([1]; Postemergence, 31 g ai/ha): 0; Galium plant response rating (0 to 100 scale) ([2]; Postemergence, 31 g ai/ha): 10; Blackgrass plant response rating (0 to 100 scale) ([3]; Postemergence, 31 g ai/ha): 0; Kochia plant response rating (0 to 100 scale) ([7]; Postemergence, 31 g ai/ha): 30; Barnyardgrass plant response rating (0 to 100 scale) ([8]; Postemergence, 31 g ai/ha): 0; Corn plant response rating (0 to 100 scale) ([9]; Postemergence, 31 g ai/ha): 10; Foxtail, Giant plant response rating (0 to 100 scale) [15, 23]: 10; Pigweed plant response rating (0 to 100 scale) [16, 23]: 20; Ragweed plant response rating (0 to 100 scale) [17, 22]: 0; Ragweed plant response rating (0 to 100 scale) [17, 23]: 40; Ryegrass, Italian plant response rating (0 to 100 scale) [18, 22]: 0; Ryegrass, Italian plant response rating (0 to 100 scale) [18, 23]: 20; Kochia plant response rating (0 to 100 scale) [19, 22]: 0; Kochia plant response rating (0 to 100 scale) [19, 23]: 0; Barnyardgrass plant response rating (0 to 100 scale) [20, 22]: 0; Barnyardgrass plant response rating (0 to 100 scale) [20, 23]: 0"
C#CCO/N=C(\c1cc(C)cc(Cl)c1)c1c(O)c(C)nn(C)c1=O [Compound 155],90,90,90,50,100,90,100,90,100,80,80,20,0,60,45,0,15,30,80,40,"Foxtail, Giant plant response rating (0 to 100 scale) [1, 24]: 80; Galium plant response rating (0 to 100 scale) [2, 24]: 90; Blackgrass plant response rating (0 to 100 scale) [3, 24]: 30; Kochia plant response rating (0 to 100 scale) [7, 24]: 70; Barnyardgrass plant response rating (0 to 100 scale) [8, 24]: 50; Corn plant response rating (0 to 100 scale) [9, 24]: 0; Foxtail, Giant plant response rating (0 to 100 scale) ([15]; 125 g ai/ha): 90; Pigweed plant response rating (0 to 100 scale) ([16]; 125 g ai/ha): 100; Ragweed plant response rating (0 to 100 scale) ([17]; 125 g ai/ha): 90; Ragweed plant response rating (0 to 100 scale) [17, 22]: 70; Ryegrass, Italian plant response rating (0 to 100 scale) ([18]; 125 g ai/ha): 100; Ryegrass, Italian plant response rating (0 to 100 scale) [18, 22]: 40; Kochia plant response rating (0 to 100 scale) ([19]; 125 g ai/ha): 90; Kochia plant response rating (0 to 100 scale) [19, 22]: 0; Barnyardgrass plant response rating (0 to 100 scale) ([20]; 125 g ai/ha): 100; Barnyardgrass plant response rating (0 to 100 scale) [20, 22]: 70"
